Data: ChEMBL document CHEMBL1158127, “Bioactive compounds from the gorgonian Briareum polyanthes. Correction of the structures of four asbestinane-type diterpenes” (J Nat Prod, 2006)
Converted amounts (≈) assume the structure as drawn. The source made the active and inactive calls. The rule behind the calls is not given here.

Assays:
[1] = test system: Plasmodium falciparum; test: Antiplasmodial activity against chloroquine-resistant Plasmodium falciparum W2; type: functional, organism-based
[2] = test system: Respiratory syncytial virus; test: Antiviral activity against RSV type A; type: functional, organism-based
[3] = test system: Venezuelan equine encephalitis virus; test: Antiviral activity against Venezuelan equine encephalomyelitis virus; type: functional, organism-based
[4] = test system: dengue virus type 2; test: Antiviral activity against Dengue virus type 2; type: functional, organism-based
[5] = test system: Hepatitis B virus; test: Antiviral activity against Hepatitis B virus; type: functional, organism-based
[6] = test system: Influenza B virus; test: Antiviral activity against Influenza B virus; type: functional, organism-based
[7] = test system: Influenza A virus; test: Antiviral activity against Influenza A virus H1N1; type: functional, organism-based
[8] = test system: Influenza A virus H3N2; test: Antiviral activity against Influenza A virus H3N2; type: functional, organism-based
[9] = test system: Yellow fever virus; test: Antiviral activity against yellow fever virus; type: functional, organism-based
[10] = test system: Mycobacterium tuberculosis; test: Antituberculosis activity against Mycobacterium tuberculosis H37Rv at 128 ug/mL; type: functional
[11] = test system: Hepatitis C virus; test: Antiviral activity against HCV; type: functional, organism-based; settings: Hepacivirus hominis
[12] = test system: West Nile virus; test: Antiviral activity against West Nile virus; type: functional, organism-based
[13] = test system: CCRF-CEM; test: Cytotoxicity against human CCRF-CEM cells; type: functional, cell-based
[14] = test system: Human gammaherpesvirus 4; test: Antiviral activity against Epstein-Barr virus; type: functional, organism-based

Row | Structure (SMILES) | IC50 [1] [µg/mL] | Activity [2] | Activity [3] | Activity [4] | Activity [5] | Activity [6] | Activity [7] | Activity [8] | Activity [9] | Activity [10] | Activity [11] | Activity [12] | IC50 [13] [µg/mL] | IC50 [14] [µg/mL]
1 | CCCC(=O)O[C@]1(C)CCC2[C@@H]3C(OC(CC(C)=O)[C@@H]31)[C@](C)(CCC(=O)O)OC(=O)[C@@H]2C (stereo partly drawn) | 20 (≈ 44.2 µM) |  |  |  |  |  |  |  |  |  |  |  |  | 
2 | C=C1CC2OC3[C@H]4C(C[C@@H](C)[C@@H](OC(C)=O)[C@@H]24)[C@@H](C)CO[C@@]3(C)CC[C@H]1OO (stereo partly drawn) | 13 (≈ 33 µM) | inactive | inactive | inactive | inactive | inactive | inactive | inactive | inactive | inactive | inactive | inactive |  | 
3 | C=C1CC2OC3[C@H]4C(C[C@@H](C)[C@@H](OC(C)=O)[C@@H]24)[C@@H](C)CO[C@@]3(C)CC[C@@H]1O (stereo partly drawn) | 17 (≈ 44.9 µM) | inactive | inactive | inactive | inactive | inactive | inactive | inactive | inactive | inactive | inactive | inactive |  | 
4 | CO[C@@H]1CC[C@]2(C)OC[C@H](C)C3C[C@@H](C)[C@@H](OC(C)=O)[C@H]4C(C[C@H]1C)OC2[C@@H]34 (stereo partly drawn) | 16 (≈ 40.6 µM) | inactive | inactive | inactive | inactive | inactive | inactive | inactive | inactive | inactive | inactive | inactive |  | 
5 | CCCC(=O)O[C@]1(C)CCC2[C@@H]3C4OC(C/C(C)=C\CC[C@]4(C)OC(=O)[C@@H]2C)[C@@H]31 (stereo partly drawn) [BRIARELLIN R] | 15 (≈ 37.1 µM) |  |  |  |  | inactive | inactive | inactive |  | 91% | inactive | inactive | 8.9 (≈ 22 µM) | 
6 | C=C1CC2OC3[C@H]4C(C[C@@H](C)[C@@H](OC(C)=O)[C@@H]24)[C@@H](C)CO[C@@]3(C)CC[C@H]1O (stereo partly drawn) | 13 (≈ 34.3 µM) | inactive | inactive | inactive | inactive | inactive | inactive | inactive | inactive | inactive | inactive | inactive |  | 
7 | CO[C@@H]1CC[C@]2(C)OC[C@H](C)C3C[C@@H](C)[C@@H](OC(C)=O)[C@H]4C(C[C@@]1(C)O)OC2[C@@H]34 (stereo partly drawn) | ≥ 50 |  |  |  |  |  |  |  |  |  |  |  |  | 
8 | C=C1CC2OC3[C@H]4C(C[C@@H](C)[C@@H](OC(C)=O)[C@@H]24)[C@@H](C)CO[C@@]3(C)CCC1=O (stereo partly drawn) | 9 (≈ 23.9 µM) | inactive | inactive | inactive | inactive | inactive | inactive | inactive | inactive | inactive | inactive | inactive |  | 0.25 (≈ 0.664 µM)
9 | CC(=O)O[C@H]1[C@H]2C3CC(=O)CCC[C@]4(C)OC[C@H](C)C(C[C@H]1C)[C@@H]2C4O3 (stereo partly drawn) [NOR-ASBESTININ A] | 14 (≈ 38.4 µM) | inactive | inactive | inactive | inactive | inactive | inactive | inactive | inactive | inactive | inactive | inactive |  | 
10 | CC(=O)O[C@H]1[C@H]2C3C[C@](C)(O)C(=O)CC[C@]4(C)OC[C@H](C)C(C[C@H]1C)[C@@H]2C4O3 (stereo partly drawn) | 18 (≈ 45.6 µM) |  |  |  |  |  |  |  |  |  |  |  |  | 
11 | CCCC(=O)O[C@]1(C)CCC2[C@@H]3C4OC(C[C@](C)(O)[C@H](O)CC[C@]4(C)OC(=O)[C@@H]2C)[C@@H]31 (stereo partly drawn) [BRIARELLIN Q] | 3 (≈ 6.84 µM) |  |  |  |  |  |  |  |  | 43% |  |  |  | 
12 | CC(=O)O[C@H]1[C@H]2C3/C=C(/C)[C@H](O)CC[C@]4(C)OC[C@H](C)C(C[C@H]1C)[C@@H]2C4O3 (stereo partly drawn) | 18 (≈ 47.6 µM) | inactive | inactive | inactive | inactive | inactive | inactive | inactive | inactive | inactive | inactive | inactive |  | 
